PubChem BioAssay (NCI)
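Test compounds were applied to cells in 96-well plates for 48 hours at 5 doses. At the GI50, growth is halved. The concentration for full growth arrest is given as TGI.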

How the values were obtained:
Assay in all cases: NCI anticancer screen, dose series, 48 h
HT29 colon = tested on: HT29 colon
SNB-75 CNS = tested on: SNB-75 CNS
OVCAR-3 ovarian = tested on: OVCAR-3 ovarian
HOP-62 NSCLC = tested on: HOP-62 NSCLC
OVCAR-5 ovarian = tested on: OVCAR-5 ovarian
NCI-H460 lung = tested on: NCI-H460 lung
UACC-257 melanoma = tested on: UACC-257 melanoma
OVCAR-4 ovarian = tested on: OVCAR-4 ovarian
HCT-116 colon = tested on: HCT-116 colon
MDA-MB-435 = tested on: MDA-MB-435
DU-145 prostate = tested on: DU-145 prostate

| Structure (SMILES) | TGI (HT29 colon) [µM] | TGI (SNB-75 CNS) [µM] | TGI (OVCAR-3 ovarian) [µM] | TGI (HOP-62 NSCLC) [µM] | TGI (OVCAR-5 ovarian) [µM] | TGI (NCI-H460 lung) [µM] | TGI (UACC-257 melanoma) [µM] | TGI (OVCAR-4 ovarian) [µM] | TGI (HCT-116 colon) [µM] | TGI (MDA-MB-435) [µM] | TGI (DU-145 prostate) [µM] | GI50 (HT29 colon) [µM] | GI50 (SNB-75 CNS) [µM] | GI50 (HCT-116 colon) [µM] | GI50 (OVCAR-3 ovarian) [µM] | GI50 (HOP-62 NSCLC) [µM] | GI50 (OVCAR-5 ovarian) [µM] | GI50 (NCI-H460 lung) [µM] | GI50 (UACC-257 melanoma) [µM] | GI50 (OVCAR-4 ovarian) [µM] |
| --- | --- | --- | --- | --- | --- | --- | --- | --- | --- | --- | --- | --- | --- | --- | --- | --- | --- | --- | --- | --- |
| CC1OC=CC(=O)C1O (centres undefined) | > 100 | > 100 | > 100 | > 100 | > 100 | > 100 | > 100 | > 100 | – | – | – | – | – | – | – | – | – | – | – | – |
| C=C(C(=O)OC)[C@H]1CC/C(C)=C/CC/C(C)=C/CC[C@@]2(C)O[C@@H]2C1 | 34.4 | > 100 | 34.4 | 42.5 | 48.2 | – | 62.3 | > 100 | 28.7 | 58.5 | 58.2 | – | – | – | – | – | – | – | – | – |
| O=C(C=P(c1ccccc1)(c1ccccc1)c1ccccc1)c1ccc(-c2ccc(F)cc2F)cc1 | 3.94 | – | 5.19 | 15.5 | 9.29 | 4.09 | 8.57 | 9.96 | 8.81 | 5.79 | 16.2 | – | – | – | – | – | – | – | – | – |
| c1ccc(COc2cccc3cccnc23)cc1 | > 100 | > 100 | > 100 | > 100 | > 100 | > 100 | > 100 | > 100 | > 100 | – | – | – | – | – | – | – | – | – | – | – |
| C[n+]1c(-c2ccc(/C=N/Nc3ccnc(N/N=C/c4ccc(-c5cn6ccccc6[n+]5C)cc4)n3)cc2)cn2ccccc21 | > 100 | > 100 | – | > 100 | > 100 | > 100 | > 100 | > 100 | > 100 | – | – | – | – | – | – | – | – | – | – | – |
| CCCCCCCCCCCCCCCCNc1ccn(C2CC(OP(=O)(O)OCC3OC(n4cc(CC)c(=O)[nH]c4=O)CC3O)C(CO)O2)c(=O)n1 (centres undefined) | 46.1 | 81.1 | > 100 | 53.9 | 62.8 | – | 97.4 | > 100 | > 100 | > 100 | > 100 | – | – | – | – | – | – | – | – | – |
| CN(CCN(C)C(=O)CCn1ccc(=O)[nH]c1=O)C(=O)CCn1ccc(=O)[nH]c1=O | > 100 | > 100 | > 100 | > 100 | > 100 | > 100 | – | > 100 | > 100 | – | – | – | – | – | – | – | – | – | – | – |
| C=C1CC(OC)(C(O)C(=O)N[C@H]2OCO[C@H]3C2O[C@H](C[C@H](O)COC)C(C)(C)C3OC)O[C@H](C)[C@@H]1C (some centres undefined) | > 0.00772 | > 0.00772 | > 0.00772 | > 0.00772 | > 0.00772 | > 0.00772 | > 0.00772 | > 0.00772 | > 0.00772 | – | – | – | – | – | – | – | – | – | – | – |
| O=S(=O)(/N=C1/SC(=Nc2ccccc2)N(c2ccccc2)/C1=N/S(=O)(=O)c1ccccc1)c1ccccc1 | 48.1 | 62.1 | – | 80.4 | 51.6 | 51.6 | 43.4 | – | 38.4 | – | – | – | – | – | – | – | – | – | – | – |
| S=C(Nc1ccc2c(c1)Cc1ccccc1-2)Nc1ccc2c(c1)Cc1ccccc1-2 | > 100 | – | > 100 | > 100 | > 100 | > 100 | > 100 | > 100 | > 100 | > 100 | > 100 | – | – | – | – | – | – | – | – | – |
| c1ccc(-c2[nH]c(-c3ccccc3)c(-c3cnccn3)c2-c2cnccn2)cc1 | > 100 | > 100 | > 100 | > 100 | > 100 | > 100 | > 100 | > 100 | > 100 | – | – | – | – | – | – | – | – | – | – | – |
| CC1(C)Oc2ccc3c(=O)c4ccccc4oc3c2C1C(=O)O (centres undefined) | > 100 | – | > 100 | > 100 | > 100 | – | > 100 | > 100 | > 100 | > 100 | > 100 | – | – | – | – | – | – | – | – | – |
| CC1(C)CC(=O)C(=CN2C(=O)CNC2=S)C(=O)C1 | – | > 100 | > 100 | > 100 | > 100 | > 100 | > 100 | > 100 | > 100 | > 100 | > 100 | – | – | – | – | – | – | – | – | – |
| Oc1ccc2ccccc2c1OCc1nnc(CCCCCCCCc2nnc(COc3c(O)ccc4ccccc34)o2)o1 | > 100 | > 100 | – | – | > 100 | > 100 | > 100 | > 100 | 54.5 | > 100 | > 100 | – | – | – | – | – | – | – | – | – |
| Cc1nnc(CC#N)n1NC(=O)CC#N | > 100 | > 100 | > 100 | > 100 | > 100 | > 100 | > 100 | – | > 100 | > 100 | > 100 | – | – | – | – | – | – | – | – | – |
| CSC1NNC2(C(=O)N1)c1ccccc1-c1ccccc12 (centres undefined) | > 10 | > 10 | – | > 10 | – | > 10 | > 10 | > 10 | > 10 | > 10 | > 10 | – | – | – | – | – | – | – | – | – |
| NC1CCCCC1N.O=S(=O)([O-])CCCN1CCN(CCO)CC1.O=S(=O)([O-])CCCN1CCN(CCO)CC1.[Pt+4] | > 22.1 | > 100 | > 36.4 | > 100 | > 38.7 | > 46 | 24 | 19.2 | > 100 | – | – | 0.945 | > 39.9 | 2 | 4.44 | > 20.7 | 8.22 | 1.15 | 5.77 | 1.63 |
| CC(=O)[C@H]1CCC2[C@@H]3CC=C4C(O)C(OS(=O)(=O)O)CC[C@]4(C)C3CC[C@@]21C (some centres undefined) | > 100 | > 100 | > 100 | > 100 | > 100 | > 100 | > 100 | > 100 | > 100 | – | – | – | – | – | – | – | – | – | – | – |
| CCOC(=O)c1c(-c2ccc(OC)c(O)c2)c(C#N)c(=S)n(C2OC(CO)C(O)C(O)C2O)c1-c1ccccc1 (centres undefined) | > 100 | – | – | > 100 | – | > 100 | > 100 | > 100 | > 100 | > 100 | > 100 | – | – | – | – | – | – | – | – | – |
| CC(C)CC(NC(=O)C(COc1ccc([N+](=O)[O-])cc1)Cc1ccccc1)C(=O)Nc1ccccc1 (centres undefined) | – | 7.84 | > 100 | – | > 100 | 13.2 | > 100 | 8.33 | > 100 | > 100 | > 100 | – | – | – | – | – | – | – | – | – |
| Cc1nn(-c2ccccn2)c2c1C(SC#N)=C(C=O)CC2 | 47 | 30.1 | 26.5 | 22.3 | 20.7 | 34.9 | 17.8 | – | 37.1 | 37.7 | 28.2 | – | – | – | – | – | – | – | – | – |
